Results taken from patent US9586951B2 (FUJIFILM Corporation, priority 2013, dated 2017).
pIC50: −log10 of the molar value.

What follows are molecules tested against T1, ATM (Homo sapiens, UniProt Q13315) (assay: ATM inhibition test (phosphorylation of Chk2 generated by ionizing radiation, AlphaScreen SureFire)). Conditions: phosphorylated Chk2 in NCI-H460 cells, ionizing radiation 8Gy, 1 hour after test compound treatment; read-out: ATM inhibitory activity.
T1 construct: detecting phosphorylation of Chk2 in a human non-small cell lung cancer cell line NCI-H460 (ATCC company); host or cells: NCI-H460 human non-small cell lung cancer cells
Assay type: cell-based
Outline: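 In NCI-H460 cells, radiation-triggered Chk2 phosphorylation (8Gy, 1 h) is detected by AlphaScreen SureFire following 1 h compound exposure.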

T1 sequence (Q13315 whole entry): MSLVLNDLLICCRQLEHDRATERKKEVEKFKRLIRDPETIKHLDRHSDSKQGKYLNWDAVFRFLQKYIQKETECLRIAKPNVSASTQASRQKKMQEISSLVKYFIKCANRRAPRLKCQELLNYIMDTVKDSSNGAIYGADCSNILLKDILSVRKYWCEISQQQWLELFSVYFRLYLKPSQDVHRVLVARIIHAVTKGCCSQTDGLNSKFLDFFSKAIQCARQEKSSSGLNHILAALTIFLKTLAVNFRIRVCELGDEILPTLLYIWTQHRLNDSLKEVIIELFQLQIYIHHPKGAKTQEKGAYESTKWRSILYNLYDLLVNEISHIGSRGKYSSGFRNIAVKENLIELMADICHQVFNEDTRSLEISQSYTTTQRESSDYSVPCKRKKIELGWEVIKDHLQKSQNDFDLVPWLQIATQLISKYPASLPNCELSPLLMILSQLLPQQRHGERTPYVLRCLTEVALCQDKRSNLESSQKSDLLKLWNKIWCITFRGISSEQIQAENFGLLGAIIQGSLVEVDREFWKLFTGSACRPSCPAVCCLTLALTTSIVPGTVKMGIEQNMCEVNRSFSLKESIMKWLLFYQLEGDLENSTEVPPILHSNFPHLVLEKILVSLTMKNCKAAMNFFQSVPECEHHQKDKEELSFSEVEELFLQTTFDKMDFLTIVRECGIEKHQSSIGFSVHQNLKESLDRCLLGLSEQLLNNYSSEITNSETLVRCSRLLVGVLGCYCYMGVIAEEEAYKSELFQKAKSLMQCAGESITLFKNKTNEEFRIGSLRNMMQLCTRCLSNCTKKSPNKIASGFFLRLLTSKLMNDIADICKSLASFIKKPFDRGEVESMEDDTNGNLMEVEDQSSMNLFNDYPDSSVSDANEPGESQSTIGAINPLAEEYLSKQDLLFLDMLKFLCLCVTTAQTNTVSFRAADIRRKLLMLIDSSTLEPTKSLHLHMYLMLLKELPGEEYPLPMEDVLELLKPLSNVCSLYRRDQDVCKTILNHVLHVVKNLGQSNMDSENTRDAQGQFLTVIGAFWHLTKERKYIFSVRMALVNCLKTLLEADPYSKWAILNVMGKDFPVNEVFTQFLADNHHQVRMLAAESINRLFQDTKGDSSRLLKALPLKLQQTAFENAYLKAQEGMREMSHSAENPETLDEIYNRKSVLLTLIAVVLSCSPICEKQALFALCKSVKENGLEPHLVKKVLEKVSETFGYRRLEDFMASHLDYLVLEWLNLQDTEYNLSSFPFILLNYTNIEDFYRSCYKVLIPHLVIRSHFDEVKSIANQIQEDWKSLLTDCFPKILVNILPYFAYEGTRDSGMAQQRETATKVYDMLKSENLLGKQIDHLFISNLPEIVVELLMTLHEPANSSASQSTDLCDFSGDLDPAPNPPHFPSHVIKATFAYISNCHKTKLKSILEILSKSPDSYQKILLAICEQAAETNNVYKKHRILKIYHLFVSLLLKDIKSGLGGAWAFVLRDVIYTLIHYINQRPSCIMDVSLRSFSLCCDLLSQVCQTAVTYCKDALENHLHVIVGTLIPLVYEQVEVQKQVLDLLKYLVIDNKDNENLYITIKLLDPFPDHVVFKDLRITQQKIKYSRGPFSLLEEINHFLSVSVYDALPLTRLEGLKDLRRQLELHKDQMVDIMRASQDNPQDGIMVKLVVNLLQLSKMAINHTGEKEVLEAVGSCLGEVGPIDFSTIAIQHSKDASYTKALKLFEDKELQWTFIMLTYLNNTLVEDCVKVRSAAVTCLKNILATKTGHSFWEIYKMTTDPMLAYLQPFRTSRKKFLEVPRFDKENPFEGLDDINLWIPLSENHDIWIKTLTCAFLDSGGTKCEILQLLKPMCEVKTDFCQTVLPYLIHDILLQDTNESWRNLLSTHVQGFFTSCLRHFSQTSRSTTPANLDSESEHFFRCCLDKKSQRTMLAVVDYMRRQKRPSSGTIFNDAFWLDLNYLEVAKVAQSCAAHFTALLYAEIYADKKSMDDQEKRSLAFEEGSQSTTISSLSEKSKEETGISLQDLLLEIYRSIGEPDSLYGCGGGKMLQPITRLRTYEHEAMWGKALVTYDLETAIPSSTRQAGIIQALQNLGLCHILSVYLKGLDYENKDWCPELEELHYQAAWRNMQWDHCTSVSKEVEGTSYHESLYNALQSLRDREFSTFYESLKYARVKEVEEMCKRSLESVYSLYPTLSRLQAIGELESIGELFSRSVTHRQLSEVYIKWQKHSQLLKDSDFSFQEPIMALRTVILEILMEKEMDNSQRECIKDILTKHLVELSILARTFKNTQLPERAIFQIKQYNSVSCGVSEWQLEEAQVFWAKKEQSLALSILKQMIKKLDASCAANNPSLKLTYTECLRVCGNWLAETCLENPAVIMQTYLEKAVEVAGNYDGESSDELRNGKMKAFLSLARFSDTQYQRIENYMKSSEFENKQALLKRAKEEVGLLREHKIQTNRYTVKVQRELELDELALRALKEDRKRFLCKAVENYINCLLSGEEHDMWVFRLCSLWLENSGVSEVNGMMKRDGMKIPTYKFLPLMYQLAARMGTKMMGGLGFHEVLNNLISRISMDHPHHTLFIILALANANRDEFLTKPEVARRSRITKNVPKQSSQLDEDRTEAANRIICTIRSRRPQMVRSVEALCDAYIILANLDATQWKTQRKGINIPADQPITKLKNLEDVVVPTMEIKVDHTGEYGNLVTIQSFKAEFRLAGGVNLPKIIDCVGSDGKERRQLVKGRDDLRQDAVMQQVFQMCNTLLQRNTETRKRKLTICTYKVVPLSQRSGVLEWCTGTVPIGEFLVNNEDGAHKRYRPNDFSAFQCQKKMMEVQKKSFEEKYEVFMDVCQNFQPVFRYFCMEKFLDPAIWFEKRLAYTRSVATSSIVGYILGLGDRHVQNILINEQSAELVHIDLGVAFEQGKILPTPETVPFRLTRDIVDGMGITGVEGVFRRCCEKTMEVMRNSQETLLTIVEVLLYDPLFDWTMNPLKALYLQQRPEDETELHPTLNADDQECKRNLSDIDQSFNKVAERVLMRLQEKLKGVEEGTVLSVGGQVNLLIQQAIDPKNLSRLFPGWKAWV

pIC50	Structure (SMILES)
6.30 to 7.00	COc1cccc(C(C)Nc2ccc3c(c2)Cc2cccc(-c4cc(N5CCOCC5)cc(=O)[nH]4)c2O3)n1 (centres unmarked) [Example 2-14-30, 6-(7-((1-(6-Methoxypyridin-2-yl)ethyl)amino)-9H-xanthen-4-yl)-4-morpholine pyridin-2(1H)-one]
6.30 to 7.00	CCC(CNc1ccc2c(c1)Sc1cccc(-c3cc(N4CCOCC4)cc(=O)[nH]3)c1S2)N1CCOCC1 (centres unmarked) [Example 1-9-1, 4-morpholino-6-(7-((2-morpholinobutyl)amino)thianthren-1-yl)pyridin-2(1H)-one]
5.70 to 6.30	O=c1cc(N2CCOCC2)cc(-c2cccc3c2Sc2ccc(NCCN4CCC(O)CC4)cc2S3)[nH]1 [Example 1-10-8, 6-(7-((2-(4-Hydroxypiperidin-1-yl)ethyl)amino)thianthren-1-yl)-4-morpholino pyridin-2(1H)-one]
6.30 to 7.00	Cc1csc(CNc2ccc3c(c2)Cc2cccc(-c4cc(N5CCOCC5)cc(=O)[nH]4)c2O3)c1 [Example 2-14-41, 6-(7-(((4-Methylthiophen-2-yl)methyl)amino)-9H-xanthen-4-yl)-4-morpholino pyridin-2(1H)-one]
5.70 to 6.30	CC(C)CC(Nc1ccc2c(c1)Sc1cccc(-c3cc(N4CCOCC4)cc(=O)[nH]3)c1S2)[C@H](C)N (stereo partly drawn) [Example 1-20-4, 6-(7-(((2S)-2-Amino-5-methylhexan-3-yl)amino)thianthren-1-yl)-4-morpholino pyridin-2(1H)-one]
6.30 to 7.00	O=c1cc(N2CCOCC2)cc(-c2cccc3c2Oc2ccc(NCc4cccc(C5CC5)n4)cc2C3)[nH]1 [Example 2-2-68, 6-(7-(((6-Cyclopropylpyridin-2-yl)methyl)amino)-9H-xanthen-4-yl)-4-morpholino pyridin-2(1H)-one]
5.70 to 6.30	O=c1cc(N2CCOCC2)cc(-c2cccc3c2Sc2ccc(NCCN4CCOCC4)cc2C3)[nH]1 [Example 3-4-1, 4-Morpholino-6-(7-((2-morpholinoethyl)amino)-9H-thioxanthen-4-yl)pyridin-2(1H)-one]
> 7.00	Cc1ccc(C(Nc2ccc3c(c2)Sc2cccc(-c4cc(N5CCOCC5)cc(=O)[nH]4)c2S3)[C@H]2CN(C)CCO2)nc1 (single isomer, unassigned) [Example 1-56-13]
6.30 to 7.00	COc1ccc(CCN2CCC(Nc3ccc4c(c3)Cc3cccc(-c5cc(N6CCOCC6)cc(=O)[nH]5)c3O4)CC2)cn1 [Example 2-28-38, 6-(7-((1-(2-(6-Methoxypyridin-3-yl)ethyl)piperidin-4-yl)amino)-9H-xanthen-4-yl)-4-morpholino pyridin-2(1H)-one]
6.30 to 7.00	Cc1ccncc1CNc1ccc2c(c1)Cc1cccc(-c3cc(N4CCOCC4)cc(=O)[nH]3)c1O2 [Example 2-14-5, 6-(7-(((4-Methylpyridin-3-yl)methyl)amino)-9H-xanthen-4-yl)-4-morpholino pyridin-2(1H)-one]
6.30 to 7.00	CC(C)(C)OC(=O)N1CCC(Nc2ccc3c(c2)Cc2cccc(-c4cc(N5CCOCC5)cc(=O)[nH]4)c2O3)CC1 [Example 2-3-12, tert-Butyl 4-((5-(4-morpholino-6-oxo-1,6-dihydropyridin-2-yl)-9H-xanthen-2-yl)amino) piperidine-1-carboxylate]
5.70 to 6.30	Cc1ccnc(C(CN2CCOCC2)Nc2ccc3c(c2)Sc2cccc(-c4cc(N5CCOCC5)cc(=O)[nH]4)c2S3)n1 (centres unmarked) [Example 1-13-18, 6-(7-((1-(4-Methylpyrimidin-2-yl)-2-morpholinoethyl)amino)thianthren-1-yl)-4-morpholinopyridin-2(1H)-one]
6.30 to 7.00	CCN1CCN(CC(C)Nc2ccc3c(c2)Sc2cccc(-c4cc(N5CCOCC5)cc(=O)[nH]4)c2S3)CC1 (centres unmarked) [Example 1-13-13, 6-(7-((1-(4-Ethylpiperazin-1-yl)propan-2-yl)amino)thianthren-1-yl)-4-morpholino pyridin-2(1H)-one]
6.30 to 7.00	COC[C@H](CN1[C@H](C)CCC[C@@H]1C)Nc1ccc2c(c1)Sc1cccc(-c3cc(N4CCOCC4)cc(=O)[nH]3)c1S2 [Example 1-46-13, 6-(7-(((S)-1-((2R,6S)-2,6- Dimethylpiperidin-1-yl)-3-methoxypropan-2-yl)amino)thianthren-1-yl)-4-morpholino pyridin-2(1H)-one]
> 7.00	Cc1ccc(C(CCN(C)CCO)Nc2ccc3c(c2)Sc2cccc(-c4cc(N5CCOCC5)cc(=O)[nH]4)c2S3)nc1 (single isomer, unassigned) [Example 10-4-1, 6-(7-((3-((2-Hydroxyethyl)(methyl)amino)-1-(5-methylpyridin-2-yl)propyl)amino)thianthren-1-yl)-4-morpholinopyridin-2(1H)-one]
6.30 to 7.00	O=c1cc(N2CCOCC2)cc(-c2cccc3c2Oc2ccc(NC4CCN(Cc5ccc(OC6CCOCC6)nc5)CC4)cc2C3)[nH]1 [Example 2-28-21, 4-Morpholino-6-(7-((1-((6-((tetrahydro-2H-pyran-4-yl)oxy)pyridin-3-yl)methyl)piperidin-4-yl)amino)-9H-xanthen-4-yl)pyridin-2(1H)-one]

pIC50	Structure (SMILES)
6.30 to 7.00	COc1cncc(C(C)Nc2ccc3c(c2)Sc2cccc(-c4cc(N5CCOCC5)cc(=O)[nH]4)c2O3)c1 (centres unmarked) [Example 4-4-1, 6-(8-((1-(5-Methoxypyridin-3-yl)ethyl)amino)phenoxathiin-4-yl)-4-morpholinopyridin-2(1H)-one]
6.30 to 7.00	O=c1cc(N2CCOCC2)cc(-c2cccc3c2Sc2ccc(NCCN4CCC(F)(F)C4)cc2S3)[nH]1 [Example 1-10-2, 6-(7-((2-(3,3-Difluoropyrrolidin-1-yl)ethyl)amino)thianthren-1-yl)-4-morpholinopyridin-2(1H)-one]
6.30 to 7.00	Cc1cncc(CNc2ccc3c(c2)Cc2cccc(-c4cc(N5CCOCC5)cc(=O)[nH]4)c2O3)n1 [Example 2-14-74, 6-(7-(((6-Methylpyrazin-2-yl)methyl)amino)-9H-xanthen-4-yl)-4-morpholino pyridin-2(1H)-one]
6.30 to 7.00	COc1cncc(CNc2ccc3c(c2)Cc2cccc(-c4cc(N5CCOCC5)cc(=O)[nH]4)c2S3)c1 [Example 3-8-9, 6-(7-(((5-Methoxypyridin-3-yl)methyl)amino)-9H-thioxanthen-4-yl)-4-morpholino pyridin-2 (1H)-one]
6.30 to 7.00	CNc1ccc(CN2CCC(Nc3ccc4c(c3)Cc3cccc(-c5cc(N6CCOCC6)cc(=O)[nH]5)c3O4)CC2)cn1 [Example 2-28-8, 6-(7-((1-((6-(Methylamino)pyridin-3-yl)methyl)piperidin-4-yl)amino)-9H-xanthen-4-yl)-4-morpholino pyridin-2(1H)-one]
6.30 to 7.00	CN1CCN(c2cc(CNc3ccc4c(c3)Cc3cccc(-c5cc(N6CCOCC6)cc(=O)[nH]5)c3O4)ccn2)CC1 [Example 2-22-2, 6-(7-(((2-(4-methylpiperazin-1-yl)pyridin-4-yl)methyl)amino)-9H-xanthen-4-yl)-4-morpholinopyridin-2(1H)-one]
6.30 to 7.00	Cc1cncc(C(C)Nc2ccc3c(c2)Cc2cccc(-c4cc(N5CCOCC5)cc(=O)[nH]4)c2O3)c1 (single isomer, unassigned) [Example 2-14-88-1, 6-(7-((1-(5-methylpyridin-3-yl)ethyl)amino)-9H-xanthen-4-yl)-4-morpholinopyridin-2(1H)-one]
6.30 to 7.00	COCC(CN1CCOCC1)Nc1ccc2c(c1)Sc1cccc(-c3cc(N4CCOCC4)cc(=O)[nH]3)c1S2 (single isomer, unassigned) [Example 1-17-1-3, 6-(7-((1-methoxy-3-morpholinopropan-2-yl)amino)thianthren-1-yl)-4-morpholinopyridin-2(1H)-one]
6.30 to 7.00	O=c1cc(N2CCOCC2)cc(-c2cccc3c2Sc2ccc(NCC4CCN(Cc5cccnc5)CC4)cc2S3)[nH]1 [Example 1-11, 4-morpholino-6-(7-(((1-(pyridin-3-ylmethyl)piperidin-4-yl)methyl)amino)thianthren-1-yl)pyridin-2(1H)-one]
6.30 to 7.00	CC(Nc1ccc2c(c1)Sc1cccc(-c3cc(N4CCOCC4)cc(=O)[nH]3)c1S2)c1ncc(CO)cn1 (single isomer, unassigned) [Example 1-12-142-2, 6-(7-((1-(5-(hydroxymethyl)pyrimidin-2-yl)ethyl)amino)thianthren-1-yl)-4-morpholinopyridin-2(1H)-one]
6.30 to 7.00	Cc1ccnc(C(CO)Nc2ccc3c(c2)Cc2cccc(-c4cc(N5CCOCC5)cc(=O)[nH]4)c2O3)c1 (racemic) [Example 2-14-39, 6-(7-((2-Hydroxy-1-(4-methylpyridin-2-yl)ethyl)amino)-9H-xanthen-4-yl)-4-morpholino pyridin-2 (1H)-one]
> 7.00	O=c1cc(N2CCOCC2)cc(-c2cccc3c2Sc2ccc(NCc4cncc(-n5cccc5)c4)cc2S3)[nH]1 [Example 1-12-19, 6-(7-(((5-(1H-Pyrrol-1-yl)pyridin-3-yl)methyl)amino)thianthren-1-yl)-4-morpholino pyridin-2(1H)-one]
> 7.00	CN(C)c1cnc(CN(Cc2cnc(N(C)C)cn2)c2ccc3c(c2)Cc2cccc(-c4cc(N5CCOCC5)cc(=O)[nH]4)c2O3)cn1 [Example 2-2-76, 6-(7-(bis((5-(dimethylamino)pyrazin-2-yl)methyl)amino)-9H-xanthen-4-yl)-4-morpholinopyridin-2(1H)-one]
6.30 to 7.00	COc1ccncc1CN1CCC(Nc2ccc3c(c2)Cc2cccc(-c4cc(N5CCOCC5)cc(=O)[nH]4)c2O3)CC1 [Example 2-28-11, 6-(7-((1-((4-Methoxypyridin-3-yl)methyl)piperidin-4-yl)amino)-9H-xanthen-4-yl)-4-morpholino pyridin-2(1H)-one]
> 7.00	Cc1ccc(CNc2ccc3c(c2)Cc2cccc(-c4cc(N5CCOCC5)cc(=O)[nH]4)c2O3)cn1 [Example 2-2-2, 6-(7-(((6-Methylpyridin-3-yl)methyl)amino)-9H-xanthen-4-yl)-4-morpholino pyridin-2 (1H)-one]
6.30 to 7.00	CC(Nc1ccc2c(c1)Cc1cccc(-c3cc(N4CCOCC4)cc(=O)[nH]3)c1O2)c1ccnc(C#N)n1 (centres unmarked) [Example 2-14-58, 4-(1-((5-(4-Morpholino-6-oxo-1,6-dihydropyridin-2-yl)-9H-xanthen-2-yl)amino)ethyl)pyrimidine-2-carbonitrile]
